Measured values taken from paper PMC6743422, “Preclinical disposition of MGS0274 besylate, a prodrug of a potent group II metabotropic glutamate receptor agonist MGS0008 for the treatment of schizophrenia” (Pharmacology Research & Perspectives, 2019).
“Also recorded” adds a separate entry of the source. Read-outs that look alike come from different tables or passages of the source. Marks after values point to notes of the source that are not given here.

Key:
CYP1A2 = target: T1, CYP1A2 (Homo sapiens, UniProt P05177); assay: CYP inhibition in human liver microsomes, CYP1A2; format: in vitro ADME; conditions: human liver microsomes 0.1 mg/mL; probe Phenacetin, metabolite Acetaminophen
T1 construct: using probe substrates for each CYP isoform and human liver microsomes; from tissue; host or cells: human liver microsomes
Method: The inhibition potential of MGS0008 (0.3‐100 µmol/L) and MGS0274 besylate (0.03‐10 µmol/L) on the activity of human cytochrome P450 (CYP) isoforms (CYP1A2, 2B6, 2C8, 2C9, 2C19, 2D6, and 3A) was investigated using probe substrates for each CYP isoform and human liver microsomes, of which the final protein concentration was set at 0.1 mg/mL (see Table S2). The assay was started by spiking the reaction mixture, which had been pre‐incubated at 37°C for 5 minutes, with NADP^+. After incubation for 5 to 10 minutes, the reaction was terminated by adding acetonitrile containing an internal standard for each probe substrate, and the resultant mixture was centrifuged. Aliquots of the supernatant were subjected to bioanalysis using LC‐MS/MS (see Table S1‐D).
The final protein concentration in the reaction mixture was set at 0.1 mg/mL. The values in parentheses represent the final concentrations of compounds added in each reaction mixture. […]

CYP2B6 = target: T2, CYP2B6 (Homo sapiens, UniProt P20813); assay: CYP inhibition in human liver microsomes, CYP2B6; format: in vitro ADME; conditions: human liver microsomes 0.1 mg/mL; probe Bupropion, metabolite Hydroxybupropion
T2 construct: using probe substrates for each CYP isoform and human liver microsomes; from tissue; host or cells: human liver microsomes

CYP2C8 = target: T3, CYP2C8 (Homo sapiens, UniProt P10632); assay: CYP inhibition in human liver microsomes, CYP2C8; format: in vitro ADME; conditions: human liver microsomes 0.1 mg/mL; probe Amodiaquine, metabolite N-desethylamodiaquine
T3 construct: using probe substrates for each CYP isoform and human liver microsomes; from tissue; host or cells: human liver microsomes

CYP2C9 = target: T4, CYP2C9 (Homo sapiens, UniProt P11712); assay: CYP inhibition in human liver microsomes, CYP2C9; format: in vitro ADME; conditions: human liver microsomes 0.1 mg/mL; probe Diclofenac, metabolite 4'-Hydroxydiclofenac
T4 construct: using probe substrates for each CYP isoform and human liver microsomes; from tissue; host or cells: human liver microsomes

CYP2C19 = target: T5, CYP2C19 (Homo sapiens, UniProt P33261); assay: CYP inhibition in human liver microsomes, CYP2C19; format: in vitro ADME; conditions: human liver microsomes 0.1 mg/mL; probe (S)-Mephenytoin, metabolite 4'-Hydroxymephenytoin
T5 construct: using probe substrates for each CYP isoform and human liver microsomes; from tissue; host or cells: human liver microsomes

CYP2D6 = target: T6, CYP2D6 (Homo sapiens, UniProt P10635); assay: CYP inhibition in human liver microsomes, CYP2D6; format: in vitro ADME; conditions: human liver microsomes 0.1 mg/mL; probe (±)-Bufuralol, metabolite 1'-Hydroxybufuralol
T6 construct: using probe substrates for each CYP isoform and human liver microsomes; from tissue; host or cells: human liver microsomes

[1] = test system: CYP1A2, 2B6, 2C8, 2C9, 2C19, 2D6 and 3A; assay: CYP inhibition in human liver microsomes, all 7 isoforms together; format: in vitro ADME; conditions: human, all the CYP isoforms tested, read-out: percent inhibition
[2] = test system: human cytochrome P450 (CYP) isoforms (CYP1A2, 2B6, 2C8, 2C9, 2C19, 2D6, and 3A); assay: as above; format: in vitro ADME; conditions: MGS0008 0.3-100 µmol/L, MGS0274 besylate 0.03-10 µmol/L
CYP1A2 mRNA = assay: CYP induction in primary cultured cryopreserved human hepatocytes, CYP1A2 mRNA; format: in vitro ADME; conditions: three consecutive 24-hour treatments
Method: (§1) The primary cultured cryopreserved human hepatocytes were plated in a collagen‐coated 96‐well plate (Becton Dickinson, Franklin Lakes, NJ) with Williams’ Medium E (Invitrogen, Carlsbad, CA) containing Geltrex^TM (Invitrogen) and Maintenance Supplements (Invitrogen) and maintained in humidified air‐5% CO2 at 37°C for 3 days. Then, the cells were cultured for three consecutive 24‐hour treatments with MGS0008 (3‐30 µmol/L), with MGS0274 besylate (3‐30 µmol/L), or with positive controls (omeprazole for CYP1A2 at 50 µmol/L, phenobarbital for CYP2B6 at 1000 µmol/L, or rifampicin for CYP3A4 at 10 µmol/L). The mRNA expression levels of CYP1A2, 2B6, and 3A4 were measured using the real‐time polymerase chain reaction (RT‐PCR) method (7500 Fast RT‐PCR system; Applied Biosystems, Foster City, CA) with TaqMan® Fast Universal PCR Master Mix (probe ID: Hs00167927_m1 for CYP1A2, Hs04183483_g1 for CYP2B6, and Hs00604506_ml for CYP3A4; Applied Biosystems). The fold change in the mRNA expression was calculated using the 2^‐ΔΔCT method.22

CYP2B6 mRNA = assay: CYP induction in primary cultured cryopreserved human hepatocytes, CYP2B6 mRNA; conditions: three consecutive 24-hour treatments
Method: as §1

CYP3A4 mRNA = format: in vitro ADME, human; conditions: three consecutive 24-hour treatments
Method: as §1

[3] = test system: mRNA expression of CYP1A2, 2B6, and 3A4; assay: CYP induction in human hepatocytes, CYP1A2, 2B6 and 3A4 together; format: in vitro ADME; conditions: 3-30 µmol/L; three lots of human hepatocytes
Method: as §1

[4] = test system: cultured human hepatocytes; assay: Toxicity to the cultured human hepatocytes; format: cell-based; conditions: at the concentrations tested (3-30 μM)
[5] = test system: phencyclidine-induced locomotor hyperactivity; conditions: rat, oral 3 mg/kg; cited from earlier work

T6 sequence (P10635 whole entry, canonical isoform): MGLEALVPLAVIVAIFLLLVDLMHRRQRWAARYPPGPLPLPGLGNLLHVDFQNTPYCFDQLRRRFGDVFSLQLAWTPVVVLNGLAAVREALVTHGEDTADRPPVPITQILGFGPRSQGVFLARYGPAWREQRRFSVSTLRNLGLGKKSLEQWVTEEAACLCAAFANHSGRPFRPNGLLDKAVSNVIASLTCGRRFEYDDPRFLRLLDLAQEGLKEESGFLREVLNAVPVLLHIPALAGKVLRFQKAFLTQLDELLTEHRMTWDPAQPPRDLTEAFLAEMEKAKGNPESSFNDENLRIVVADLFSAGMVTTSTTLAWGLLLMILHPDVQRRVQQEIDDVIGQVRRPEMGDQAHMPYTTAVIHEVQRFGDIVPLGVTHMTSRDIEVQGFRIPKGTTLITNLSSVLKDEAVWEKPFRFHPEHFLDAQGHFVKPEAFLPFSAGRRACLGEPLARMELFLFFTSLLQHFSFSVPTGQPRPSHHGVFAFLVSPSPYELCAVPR
T5 sequence (P33261 whole entry, canonical isoform): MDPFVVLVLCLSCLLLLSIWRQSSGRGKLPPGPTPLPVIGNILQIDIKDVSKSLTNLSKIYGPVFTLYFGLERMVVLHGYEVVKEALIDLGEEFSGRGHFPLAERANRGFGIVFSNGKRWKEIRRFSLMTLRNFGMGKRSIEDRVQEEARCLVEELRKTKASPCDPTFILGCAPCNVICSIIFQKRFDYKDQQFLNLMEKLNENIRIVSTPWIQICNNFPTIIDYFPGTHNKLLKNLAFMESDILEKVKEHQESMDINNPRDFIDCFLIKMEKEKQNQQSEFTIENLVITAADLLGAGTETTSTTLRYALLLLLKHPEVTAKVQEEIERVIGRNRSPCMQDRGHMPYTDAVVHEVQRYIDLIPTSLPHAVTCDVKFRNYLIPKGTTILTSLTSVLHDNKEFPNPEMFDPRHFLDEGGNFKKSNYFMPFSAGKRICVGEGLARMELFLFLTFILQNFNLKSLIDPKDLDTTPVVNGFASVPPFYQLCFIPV
T4 sequence (P11712 whole entry, canonical isoform): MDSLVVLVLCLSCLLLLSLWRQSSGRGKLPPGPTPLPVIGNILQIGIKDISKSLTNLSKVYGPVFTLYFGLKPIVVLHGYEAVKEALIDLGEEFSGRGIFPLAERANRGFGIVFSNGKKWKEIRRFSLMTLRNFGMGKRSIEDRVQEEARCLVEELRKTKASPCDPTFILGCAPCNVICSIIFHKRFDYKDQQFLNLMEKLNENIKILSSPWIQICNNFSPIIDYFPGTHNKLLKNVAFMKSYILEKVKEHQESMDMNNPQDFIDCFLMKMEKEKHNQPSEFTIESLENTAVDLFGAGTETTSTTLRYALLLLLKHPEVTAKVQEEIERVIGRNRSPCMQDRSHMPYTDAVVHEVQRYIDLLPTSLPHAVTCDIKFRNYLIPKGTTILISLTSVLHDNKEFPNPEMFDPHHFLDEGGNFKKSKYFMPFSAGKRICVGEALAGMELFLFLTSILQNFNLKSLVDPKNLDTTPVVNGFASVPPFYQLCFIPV
T2 sequence (P20813 whole entry, canonical isoform): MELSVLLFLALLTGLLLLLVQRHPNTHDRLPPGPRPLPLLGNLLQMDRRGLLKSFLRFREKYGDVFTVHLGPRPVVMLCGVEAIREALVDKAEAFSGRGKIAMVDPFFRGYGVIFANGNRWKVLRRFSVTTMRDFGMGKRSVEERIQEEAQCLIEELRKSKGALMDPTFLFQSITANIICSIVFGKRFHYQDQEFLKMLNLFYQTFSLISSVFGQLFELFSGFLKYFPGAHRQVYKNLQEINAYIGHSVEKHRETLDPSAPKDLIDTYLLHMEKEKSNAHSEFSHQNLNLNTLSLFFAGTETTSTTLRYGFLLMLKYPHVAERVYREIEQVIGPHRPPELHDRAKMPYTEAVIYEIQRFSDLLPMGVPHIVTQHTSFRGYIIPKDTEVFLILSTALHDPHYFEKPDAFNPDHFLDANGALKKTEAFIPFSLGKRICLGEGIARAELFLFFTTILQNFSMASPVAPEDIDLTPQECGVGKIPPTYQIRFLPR
T1 sequence (P05177 whole entry, canonical isoform): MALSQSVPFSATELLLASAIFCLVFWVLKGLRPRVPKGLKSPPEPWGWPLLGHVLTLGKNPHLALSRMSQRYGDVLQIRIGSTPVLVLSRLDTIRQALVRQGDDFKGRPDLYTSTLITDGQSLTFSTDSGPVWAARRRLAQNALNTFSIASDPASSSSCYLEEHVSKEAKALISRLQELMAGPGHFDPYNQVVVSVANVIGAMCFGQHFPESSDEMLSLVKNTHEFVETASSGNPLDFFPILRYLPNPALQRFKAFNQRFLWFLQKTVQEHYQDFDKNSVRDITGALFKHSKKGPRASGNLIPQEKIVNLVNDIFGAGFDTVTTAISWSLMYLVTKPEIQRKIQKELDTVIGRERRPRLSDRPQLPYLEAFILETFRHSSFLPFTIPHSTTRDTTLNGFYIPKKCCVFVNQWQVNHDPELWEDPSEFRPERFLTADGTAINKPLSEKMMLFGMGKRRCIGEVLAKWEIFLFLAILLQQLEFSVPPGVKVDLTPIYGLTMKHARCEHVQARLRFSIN
T3 sequence (P10632 whole entry, canonical isoform): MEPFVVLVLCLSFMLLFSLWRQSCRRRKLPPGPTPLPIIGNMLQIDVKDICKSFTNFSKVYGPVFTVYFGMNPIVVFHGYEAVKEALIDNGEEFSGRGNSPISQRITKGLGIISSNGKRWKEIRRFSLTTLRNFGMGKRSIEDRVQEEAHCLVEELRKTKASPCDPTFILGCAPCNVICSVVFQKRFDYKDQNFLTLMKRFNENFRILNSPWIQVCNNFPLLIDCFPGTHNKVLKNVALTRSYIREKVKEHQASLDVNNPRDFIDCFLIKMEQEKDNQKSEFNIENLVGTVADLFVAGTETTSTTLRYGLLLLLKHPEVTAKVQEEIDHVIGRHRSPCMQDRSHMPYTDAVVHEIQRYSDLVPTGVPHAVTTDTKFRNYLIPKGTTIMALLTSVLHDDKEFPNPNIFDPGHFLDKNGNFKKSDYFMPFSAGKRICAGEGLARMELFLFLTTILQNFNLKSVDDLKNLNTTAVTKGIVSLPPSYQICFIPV

| Compound | IC50 (CYP1A2) [µM] | IC50 (CYP2B6) [µM] | IC50 (CYP2C8) [µM] | IC50 (CYP2C9) [µM] | IC50 (CYP2C19) [µM] | IC50 (CYP2D6) [µM] | inhibitory potential on the CYP isoforms [2] | Fold change of mRNA expression level CYP1A2 (CYP1A2 mRNA; hepatocyte lot Hu1487, 3 μM) [fold] | Fold change of mRNA expression level CYP1A2 (CYP1A2 mRNA; hepatocyte lot Hu1487, 10 μM) [fold] | Fold change of mRNA expression level CYP1A2 (CYP1A2 mRNA; hepatocyte lot Hu1487, 30 μM) [fold] | Fold change of mRNA expression level CYP1A2 (CYP1A2 mRNA; hepatocyte lot Hu8114, 3 μM) [fold] | Fold change of mRNA expression level CYP1A2 (CYP1A2 mRNA; hepatocyte lot Hu8114, 10 μM) [fold] | Fold change of mRNA expression level CYP1A2 (CYP1A2 mRNA; hepatocyte lot Hu8114, 30 μM) [fold] | Fold change of mRNA expression level CYP1A2 (CYP1A2 mRNA; hepatocyte lot Hu8123, 3 μM) [fold] | Fold change of mRNA expression level CYP1A2 (CYP1A2 mRNA; hepatocyte lot Hu8123, 10 μM) | Fold change of mRNA expression level CYP1A2 (CYP1A2 mRNA; hepatocyte lot Hu8123, 30 μM) [fold] | Fold change of mRNA expression level CYP2B6 (CYP2B6 mRNA; hepatocyte lot Hu1487, 3 μM) [fold] | Fold change of mRNA expression level CYP2B6 (CYP2B6 mRNA; hepatocyte lot Hu1487, 10 μM) [fold] | Fold change of mRNA expression level CYP2B6 (CYP2B6 mRNA; hepatocyte lot Hu1487, 30 μM) [fold] | Fold change of mRNA expression level CYP2B6 (CYP2B6 mRNA; hepatocyte lot Hu8114, 3 μM) [fold] | other results |
| --- | --- | --- | --- | --- | --- | --- | --- | --- | --- | --- | --- | --- | --- | --- | --- | --- | --- | --- | --- | --- | --- |
| N[C@]1(C(=O)O)[C@H]2[C@@H](C[C@@H]1F)[C@@H]2C(=O)O [MGS0008, (1S,2S,3S,5R,6S)‐2‐amino‐3‐fluorobicyclo[3.1.0]hexane‐2,6‐dicarboxylic acid] | > 100 | > 100 | > 100 | > 100 | > 100 | > 100 | no inhibitory potential | 0.8 | 0.7 | 1.0 | 1.1 | 1.0 | 1.1 | 0.9 | 1.1^b fold | 0.9 | 0.9 | 0.7 | 0.9 | 0.8 | inhibition at 100 µM ([1]; at 100 μM): < 50%; Fold change of mRNA expression level CYP2B6 (CYP2B6 mRNA; hepatocyte lot Hu8114, 10 μM): 0.8 fold; Fold change of mRNA expression level CYP2B6 (CYP2B6 mRNA; hepatocyte lot Hu8114, 30 μM): 1.0 fold; Fold change of mRNA expression level CYP2B6 (CYP2B6 mRNA; hepatocyte lot Hu8123, 3 μM): 1.2 fold; Fold change of mRNA expression level CYP2B6 (CYP2B6 mRNA; hepatocyte lot Hu8123, 10 μM): 1.2^b fold; Fold change of mRNA expression level CYP2B6 (CYP2B6 mRNA; hepatocyte lot Hu8123, 30 μM): 1.3 fold; Fold change of mRNA expression level CYP3A4 (CYP3A4 mRNA; hepatocyte lot Hu1487, 3 μM): 1.3 fold; Fold change of mRNA expression level CYP3A4 (CYP3A4 mRNA; hepatocyte lot Hu1487, 10 μM): 1.3 fold; Fold change of mRNA expression level CYP3A4 (CYP3A4 mRNA; hepatocyte lot Hu1487, 30 μM): 1.7 fold; Fold change of mRNA expression level CYP3A4 (CYP3A4 mRNA; hepatocyte lot Hu8114, 3 μM): 1.4 fold; Fold change of mRNA expression level CYP3A4 (CYP3A4 mRNA; hepatocyte lot Hu8114, 10 μM): 1.4 fold; Fold change of mRNA expression level CYP3A4 (CYP3A4 mRNA; hepatocyte lot Hu8114, 30 μM): 1.9 fold; Fold change of mRNA expression level CYP3A4 (CYP3A4 mRNA; hepatocyte lot Hu8123, 3 μM): 1.0 fold; Fold change of mRNA expression level CYP3A4 (CYP3A4 mRNA; hepatocyte lot Hu8123, 10 μM): 0.7 fold; Fold change of mRNA expression level CYP3A4 (CYP3A4 mRNA; hepatocyte lot Hu8123, 30 μM): 0.9 fold; induction potential on the CYP mRNA tested [3]: no apparent induction potential; toxicity to the cultured human hepatocytes [4]: did not show detectable toxicity; phencyclidine-induced locomotor hyperactivity [5]: inhibited; also recorded: significantly decreased |
| CC(C)[C@@H]1CC[C@@H](C)C[C@H]1OC(=O)O[C@@H](C)OC(=O)[C@H]1[C@@H]2C[C@H](F)[C@@](N)(C(=O)O)[C@@H]21.O=S(=O)(O)c1ccccc1 [MGS0274 besylate, (1S,2S,3S,5R,6S)‐2‐amino‐3‐fluoro‐6‐({(1S)‐1‐[({[(1R,2S,5R)‐5‐methyl‐2‐(propan‐2‐yl)cyclohexyl]oxy}carbonyl)oxy]ethoxy}carbonyl)bicyclo[3.1.0]hexane‐2‐carboxylic acid monobenzenesulfonate] | > 10 | > 10 | > 10 | > 10 | > 10 | > 10 | no inhibitory potential | 1.0 | 1.0 | 1.4 | 1.1 | 1.0 | 1.1 | 1.1 | 1.2 fold | 1.3 | 1.1 | 1.0 | 1.4 | 0.8 | inhibition at 10 µM ([1]; at 10 μM): < 50%; Fold change of mRNA expression level CYP2B6 (CYP2B6 mRNA; hepatocyte lot Hu8114, 10 μM): 1.0 fold; Fold change of mRNA expression level CYP2B6 (CYP2B6 mRNA; hepatocyte lot Hu8114, 30 μM): 1.5 fold; Fold change of mRNA expression level CYP2B6 (CYP2B6 mRNA; hepatocyte lot Hu8123, 3 μM): 1.7 fold; Fold change of mRNA expression level CYP2B6 (CYP2B6 mRNA; hepatocyte lot Hu8123, 10 μM): 1.8 fold; Fold change of mRNA expression level CYP2B6 (CYP2B6 mRNA; hepatocyte lot Hu8123, 30 μM): 2.4 fold; Fold change of mRNA expression level CYP3A4 (CYP3A4 mRNA; hepatocyte lot Hu1487, 3 μM): 1.4 fold; Fold change of mRNA expression level CYP3A4 (CYP3A4 mRNA; hepatocyte lot Hu1487, 10 μM): 1.5 fold; Fold change of mRNA expression level CYP3A4 (CYP3A4 mRNA; hepatocyte lot Hu1487, 30 μM): 1.8 fold; Fold change of mRNA expression level CYP3A4 (CYP3A4 mRNA; hepatocyte lot Hu8114, 3 μM): 1.1 fold; Fold change of mRNA expression level CYP3A4 (CYP3A4 mRNA; hepatocyte lot Hu8114, 10 μM): 0.9 fold; Fold change of mRNA expression level CYP3A4 (CYP3A4 mRNA; hepatocyte lot Hu8114, 30 μM): 1.1 fold; Fold change of mRNA expression level CYP3A4 (CYP3A4 mRNA; hepatocyte lot Hu8123, 3 μM): 0.8 fold; Fold change of mRNA expression level CYP3A4 (CYP3A4 mRNA; hepatocyte lot Hu8123, 10 μM): 0.8 fold; Fold change of mRNA expression level CYP3A4 (CYP3A4 mRNA; hepatocyte lot Hu8123, 30 μM): 0.9 fold; induction potential on the CYP mRNA tested [3]: no apparent induction potential; toxicity to the cultured human hepatocytes [4]: did not show detectable toxicity |
